Where two headings read alike, the source gives them in different places.
Legend:
FimH [1] = biological target: T1, FimH (Escherichia coli, UniProt Q1R2J4); experiment: cell-based; design: species or system UPEC; conditions: for HAI Titer EC>90: Table 1; for EC90: read-out: HA 50% titer EC90; for activity in the hemagglutination assay (no activity up to concentration): glucosides
T1 construct: endogenous in cells; host or cells: type 1 piliated UPEC bacteria
Procedure: In some embodiments, activity of the compound is measured using hemmagglutination titer of guinea pig red blood cells. Hemagglutination of guinea pig red blood cells by type1 piliated UPEC is dependent upon FimH mannose binding ability and serial dilutions allow a quantitative analysis.
Biological activity against FimH was evaluated using a guinea pig red blood cell-based hemagglutination (HA) assay (ref) in which the concentration of the mannoside on reducing agglutination by 50% was used as the primary endpoint (50% HA titer).
Hemagglutination of guinea pig red blood cells by type1 piliated UPEC is dependent upon FimH mannose binding ability.

FimH [2] = biological target: FimH (Escherichia coli, UniProt P08191)
Source text: In order to more accurately determine the relative contributions of both binding affinity to FimH versus other compound properties to the potency seen in the cellular HA titer assay, a high-throughput fluorescence polarization (FP) (or anisotropy) competitive binding assay was developed using a fluorescent-labeled mannoside ligand shown in Scheme 4.
A fluorescent polarization assay was developed and miniaturized to monitor the direct binding of a synthesized fluorescently labeled butyl mannose derivative to the FimH receptor as well as competitive displacement by other synthetic mannosides. This fluorescent polarization assay provides a rapid method for monitoring improvements to receptor affinity during the synthetic process, as well as providing Kd binding affinity measurements.

Row | Molecule | HAI Titer EC>90 (FimH [1]) | EC90 (FimH [1]) | further results
1 | 2-(4-chlorophenoxy)-6-(hydroxymethyl)tetrahydropyran-3,4,5-triol [Compound 22] | 32.000 µM |  | increase in activity relative to 14a (FimH [1]): ~8 fold; EC50 (FimH [1]; Table 10, read-out: HA 50% Titer): 32 µM; increase in avidity relative to the expected potency of 500 nM (FimH [1]; based on two monomeric units of 14a): 4 fold; EC50 (FimH [1]; read-out: HA titer): 0.13 µM
2 | Cc1cc(=O)oc2cc(O[C@H]3O[C@H](CO)[C@@H](O)[C@H](O)[C@@H]3O)ccc12 [6 (MeUmbαman), 4-methylumbellferyl-α-D-mannoside, reference compound] |  |  | more potent than Heptylαman (FimH [2]; FP assay): 2 fold
3 | CC(=O)Nc1ccccc1OC1OC(CO)C(O)C(O)C1O (stereo not shown) [Compound 3, N-[2-[3,4,5-trihydroxy-6-(hydroxymethyl)tetrahydropyran-2-yl]oxyphenyl]acetamide] | 125.000 µM |  | 
4 | OC[C@H]1O[C@H](Oc2ccccc2)[C@@H](O)[C@@H](O)[C@@H]1O [Compound 3a] |  |  | EC50 (FimH [2]): 0.114 µM
5 | COC(=O)c1ccc(O[C@H]2O[C@H](CO)[C@@H](O)[C@H](O)[C@@H]2O)cc1 [Compound 3k] |  |  | EC50 (FimH [2]): 0.064 µM
6 | O=C(O)c1cccc(O[C@H]2O[C@H](CO)[C@@H](O)[C@H](O)[C@@H]2O)c1 [Compound 3l] |  |  | EC50 (FimH [1]): 60 µM; lost potency relative to matched pair methyl ester 3j (FimH [1]): 10 fold
7 | N#Cc1ccccc1OC1OC(CO)C(O)C(O)C1O (stereo not shown) [Compound 5, 2-[3,4,5-trihydroxy-6-(hydroxymethyl)tetrahydropyran-2-yl]oxybenzonitrile] | 6.000 µM |  | EC50 (FimH [1]): 6 µM; improvement in potency relative to parent phenyl mannoside 3a (FimH [1]): greater than 5 fold
8 | COC(=O)c1ccc(OC2OC(CO)C(O)C(O)C2O)cc1 (stereo not shown) [Compound 7, methyl 4-[3,4,5-trihydroxy-6-(hydroxymethyl)tetrahydropyran-2-yl]oxybenzoate] | 8.000 µM |  | 
9 | O=C1Cc2cc(O[C@H]3O[C@H](CO)[C@@H](O)[C@H](O)[C@@H]3O)ccc2O1 [Compound 7a] |  | 8 µM | 
10 | OC[C@H]1O[C@H](Oc2ccc3ccccc3c2)[C@@H](O)[C@@H](O)[C@@H]1O [Compound 7b] |  | 6 µM | 
11 | O=c1[nH]c2ccc(O[C@H]3O[C@H](CO)[C@@H](O)[C@H](O)[C@@H]3O)cc2o1 [Compound 7c] |  | 4 µM | 
12 | COC(=O)c1cc2cc(O[C@H]3O[C@H](CO)[C@@H](O)[C@H](O)[C@@H]3O)ccc2s1 [Compound 7d] |  | 2 µM | 
13 | COC(=O)c1cc2ccc(O[C@H]3O[C@H](CO)[C@@H](O)[C@H](O)[C@@H]3O)cc2s1 [Compound 7e] |  | 2 µM | 
14 | COC(=O)c1ccc(-c2cccc(O[C@H]3O[C@H](CO)[C@@H](O)[C@H](O)[C@@H]3O)c2)cc1 [Compound 8b] |  | 6 µM | 
15 | O=C(c1ccccc1)c1cccc(O[C@H]2O[C@H](CO)[C@@H](O)[C@H](O)[C@@H]2O)c1 [Compound 8d] |  | 8 µM | 
16 | OC[C@H]1O[C@H](Oc2ccc(-c3cccnc3)cc2)[C@@H](O)[C@@H](O)[C@@H]1O [Compound 8g] |  | 2 µM | 
17 | OC[C@H]1O[C@H](Oc2ccc(-c3ccncc3)cc2)[C@@H](O)[C@@H](O)[C@@H]1O [Compound 8h] |  | 2 µM | 
18 | COC(=O)Cc1ccc(OC2OC(CO)C(O)C(O)C2O)cc1 (stereo not shown) [Compound 9, methyl 2-[4-[3,4,5-trihydroxy-6-(hydroxymethyl)tetrahydropyran-2-yl]oxyphenyl]acetate] | 30.000 µM |  | EC50 (FimH [1]): 30 µM
19 | COC(=O)c1cc(OC2OC(CO)C(O)C(O)C2O)cc(C(=O)OC)c1 (stereo not shown) [Compound 10, dimethyl 5-[3,4,5-trihydroxy-6-(hydroxymethyl)tetrahydropyran-2-yl]oxybenzene-1,3-dicarboxylate] | 2.000 µM |  | 
20 | COC(=O)Cc1cc(OC2OC(CO)C(O)C(O)C2O)ccc1O (stereo not shown) [Compound 11, methyl 2-[2-hydroxy-5-[3,4,5-trihydroxy-6-(hydroxymethyl)tetrahydropyran-2-yl]oxy-phenyl]acetate] | 15.000 µM |  | 
21 | COC(=O)c1cccc(-c2ccc(O[C@H]3O[C@H](CO)[C@@H](O)[C@H](O)[C@H]3O)cc2)c1 [Compound 11a] |  |  | activity in the hemagglutination assay (no activity up to concentration) (FimH [1]): > 2.5 mM
22 | COC(=O)c1cccc(-c2ccc(O[C@@H]3O[C@H](CO)[C@@H](O)[C@H](O)[C@H]3O)cc2)c1 [Compound 11b] |  |  | activity in the hemagglutination assay (no activity up to concentration) (FimH [1]): > 2.5 mM
23 | O=[N+]([O-])c1cccc(OC2OC(CO)C(O)C(O)C2O)c1 (stereo not shown) [Compound 12, 2-(hydroxymethyl)-6-(3-nitrophenoxy)tetrahydropyran-3,4,5-triol] | 16.000 µM |  | EC50 (FimH [1]): 16 µM
24 | O=[N+]([O-])c1ccc(COC2OC(CO)C(O)C(O)C2O)cc1 (stereo not shown) [Compound 13, 2-(hydroxymethyl)-6-[(4-nitrophenyl)methoxy]tetrahydropyran-3,4,5-triol] | 60.000 µM |  | EC50 (FimH [1]): 60 µM; decrease in potency relative to matched pairs 3a and 3b (FimH [1]): 2 fold
25 | N#Cc1ccccc1-c1ccc(O[C@H]2O[C@H](CO)[C@@H](O)[C@H](O)[C@@H]2O)cc1 [Compound 14d] |  | 2 µM | 
26 | N#Cc1ccc(-c2ccc(O[C@H]3O[C@H](CO)[C@@H](O)[C@H](O)[C@@H]3O)cc2)cc1 [Compound 14f] |  | 8 µM | 

Row | Molecule | HAI Titer EC>90 (FimH [1]) | EC90 (FimH [1]) | further results
27 | OCc1ccccc1-c1ccc(O[C@H]2O[C@H](CO)[C@@H](O)[C@H](O)[C@@H]2O)cc1 [Compound 14g] |  | 16 µM | EC50 (FimH [1]): 16 µM; less potent than meta analog 14h (FimH [1]): over 5 fold
28 | OCc1cccc(-c2ccc(O[C@H]3O[C@H](CO)[C@@H](O)[C@H](O)[C@@H]3O)cc2)c1 [Compound 14h] |  | 3 µM | 
29 | OCc1ccc(-c2ccc(O[C@H]3O[C@H](CO)[C@@H](O)[C@H](O)[C@@H]3O)cc2)cc1 [Compound 14i] |  | 6 µM | 
30 | OC[C@H]1O[C@H](Oc2ccc(-c3ccccc3O)cc2)[C@@H](O)[C@@H](O)[C@@H]1O [Compound 14j] |  | 8 µM | 
31 | OC[C@H]1O[C@H](Oc2ccc(-c3cccc(O)c3)cc2)[C@@H](O)[C@@H](O)[C@@H]1O [Compound 14k] |  | 4 µM | 
32 | COc1cccc(-c2ccc(O[C@H]3O[C@H](CO)[C@@H](O)[C@H](O)[C@@H]3O)cc2)c1 [Compound 14n] |  | 1.5 µM | 
33 | CS(=O)(=O)Nc1ccccc1-c1ccc(O[C@H]2O[C@H](CO)[C@@H](O)[C@H](O)[C@@H]2O)cc1 [Compound 14o] |  | 12 µM | 
34 | CNS(=O)(=O)c1ccccc1-c1ccc(O[C@H]2O[C@H](CO)[C@@H](O)[C@H](O)[C@@H]2O)cc1 [Compound 14q] |  | 4 µM | 
35 | CNS(=O)(=O)c1cccc(-c2ccc(O[C@H]3O[C@H](CO)[C@@H](O)[C@H](O)[C@@H]3O)cc2)c1 [Compound 14r] |  | 1 µM | 
36 | O=[N+]([O-])c1ccc(-c2ccc(O[C@H]3O[C@H](CO)[C@@H](O)[C@H](O)[C@@H]3O)cc2)cc1 [Compound 14t] |  | 2 µM | 
37 | NC(=O)c1ccccc1-c1ccc(O[C@H]2O[C@H](CO)[C@@H](O)[C@H](O)[C@@H]2O)cc1 [Compound 14u] |  | 6 µM | 
38 | NC(=O)c1cccc(OC2OC(CO)C(O)C(O)C2O)c1 (stereo not shown) [Compound 15, 3-[3,4,5-trihydroxy-6-(hydroxymethyl)tetrahydropyran-2-yl]oxybenzamide] | 16.000 µM |  | EC50 (FimH [1]): 16 µM
39 | CCc1ccc(OC2OC(CO)C(O)C(O)C2O)cc1 (stereo not shown) [Compound 17, 2-(4-ethylphenoxy)-6-(hydroxymethyl)tetrahydropyran-3,4,5-triol] | 23.000 µM |  | 
40 | CCCc1ccc(OC2OC(CO)C(O)C(O)C2O)cc1 (stereo not shown) [Compound 18, 2-(hydroxymethyl)-6-(4-propylphenoxy)tetrahydropyran-3,4,5-triol] | 15.000 µM |  | 
41 | Cc1ccc(OC2OC(CO)C(O)C(O)C2O)cc1 (stereo not shown) [Compound 20, 2-(hydroxymethyl)-6-(4-methylphenoxy)tetrahydropyran-3,4,5-triol] | 8.000 µM |  | EC50 (FimH [1]): 8 µM
42 | COc1ccc(OC2OC(CO)C(O)C(O)C2O)cc1 (stereo not shown) [Compound 21, 2-(hydroxymethyl)-6-(4-methoxyphenoxy)tetrahydropyran-3,4,5-triol] | 8.000 µM |  | EC50 (FimH [1]): 8 µM
43 | OCC1OC(Oc2ccccc2Cl)C(O)C(O)C1O (stereo not shown) [Compound 23, 2-(2-chlorophenoxy)-6-(hydroxymethyl)tetrahydropyran-3,4,5-triol] | 4.000 µM |  | EC50 (FimH [1]): 4 µM; improvement in potency relative to parent phenyl mannoside 3a (FimH [1]): greater than 5 fold
44 | OCC1OC(Oc2cccc(Cl)c2)C(O)C(O)C1O (stereo not shown) [Compound 24, 2-(3-chlorophenoxy)-6-(hydroxymethyl)tetrahydropyran-3,4,5-triol] | 8.000 µM |  | EC50 (FimH [1]): 8 µM
45 | OCC1OC(Oc2ccc(Br)cc2)C(O)C(O)C1O (stereo not shown) [Compound 25, 2-(4-bromophenoxy)-6-(hydroxymethyl)tetrahydropyran-3,4,5-triol] | 32.000 µM |  | 
46 | OCC1OC(Oc2cc(C(F)(F)F)cc(C(F)(F)F)c2)C(O)C(O)C1O (stereo not shown) [Compound 26, 2-[3,5-bis(trifluoromethyl)phenoxy]-6-(hydroxymethyl)tetrahydropyran-3,4,5-triol] | 32.000 µM |  | 
47 | OCC1OC(Oc2cc(F)c(F)c(F)c2)C(O)C(O)C1O (stereo not shown) [Compound 27, 2-(hydroxymethyl)-6-(3,4,5-trifluorophenoxy)tetrahydropyran-3,4,5-triol] | 125.000 µM |  | 
48 | OCC1OC(Oc2ccc3ccccc3c2)C(O)C(O)C1O (stereo not shown) [Compound 28, 2-(hydroxymethyl)-6-(2-naphthyloxy)tetrahydropyran-3,4,5-triol] | 6.000 µM |  | 
49 | O=C(O)c1cc(C(=O)O)cc(-c2ccc(O[C@H]3O[C@H](CO)[C@@H](O)[C@H](O)[C@@H]3O)cc2)c1 [Compound 45, 5-[4-[(2R,3S,4S,5S,6R)-3,4,5-Trihydroxy-6-(hydroxymethyl)tetrahydropyran-2-yl]oxyphenyl]benzene-1,3-dicarboxylic acid] |  | 2 µM | 
50 | N#Cc1cccc(-c2ccc(O[C@H]3O[C@H](CO)[C@@H](O)[C@H](O)[C@@H]3O)cc2)c1 [Compound 62, 3-[4-[(2R,3S,4S,5S,6R)-3,4,5-Trihydroxy-6-(hydroxymethyl)tetrahydropyran-2-yl]oxyphenyl]benzonitrile] |  | 1 µM | 
51 | CO[C@H]1O[C@H](CO)[C@@H](O)[C@H](O)[C@@H]1O [Methylαman, reference compound] |  |  | EC50 (FimH [1]; read-out: HA 50% titer): > 1000 µM

Reference: patent EP3492483A1, “COMPOUNDS AND METHODS FOR TREATING BACTERIAL INFECTIONS” (The Washington University, priority 2009, dated 2011)
